From US8227228B2, “D-amino acid oxidase, and method for production of L-amino acid, 2-oxo acid, or cyclic imine” (priority 2005, dated 2012)

B1: D-amino acid oxidase (Sungouiella intermedia) (protein)
chain: MSEYVIVGSGIIGLYTGYKLLESGVPGESITVEAEFLPGDESIKYTSPYAGGNFSGITGDDPDSLKFDKHTYENLPKLQKLLGGPLCGLDMLPATEIWDNVKSKKIDSLKQYLKDYQEIEQEELPEGAKFGVKFTTWNFNCPKFLSNVQKYLLSKNVTFIRKNLTHITQAFGPATKCVFNCTGNGARFLGGVQDAKVYPTRGQVVVIKAPHINENMIRWGDNYATYIIKRPYSHDQLILGGFLQKDDWTPDTLSEQTEDILFRTTNLLPKILNQNPHGPNIEDLEIVRVVAGLRPSRHGGVRIEKEVLDGKLLIHNYGAGGYGYQSGLGMADKAVKLALGQSKL

Substrate: N[C@H](Cc1ccccc1)C(=O)O
Test: Measurement of Km value relative to D-Phe
Type: biochemical, Candida intermedia NBRC0761
Details: other: D-Phe as substrate, various substrate concentrations, reciprocal plot (FIG. 2); pH 8.0; 30.0 °C
Procedure: (§1) Moreover, the D-amino acid oxidase activity for examining the properties of the enzyme shown below was measured as follows. 250 μl of a substrate solution containing 100 mM DL-phenylalanine and 50 mM Tris-hydrochloric acid buffer (pH 8.0) was maintained at 30° C. (each temperature for determining the range of operative temperature and the optimal temperature) for 5 min, mixed with 50 μl of an appropriately diluted enzyme solution, and the mixture was reacted at 30° C. (each temperature for determining the range of operative temperature and the optimal temperature) for 5 min. 10 μl of 3N HCl was added to stop the reaction. Then, 500 μl of a chromogenic solution containing 0.80 mM 4-aminoantipyrine, 1.31 mM N-ethyl-N-(2-hydroxy-3-sulfopropyl)-m-toluidine, 6 u/ml peroxidase (manufactured by TOYOBO Inc.) and 50 mM Tris-hydrochloric acid buffer (pH 8.0), which was maintained at 30° C. for 5 min, was mixed with 100 μl of the aforementioned reaction mixture. Absorption at 555 nm was measured, and the amount of hydrogen peroxide produced in the reaction mixture was quantified based on the analytical curve prepared in advance.
Using D-Phe as a substrate, the activity was measured at various substrate concentrations and the Km value relative to D-Phe was determined. From the results shown in FIG. 2, the Km value relative to D-Phe was about 1.7 (not less than 1.6 and not more than 1.8) mM.

B1 was tested, and the Km was 1700 µM.

Biological target: T1, D-amino acid oxidase (Sungouiella intermedia, UniProt A0A1L0GHW3)
Test: Temperature stability and pH stability (residual activity)
Type: physicochemical, Candida intermedia NBRC0761
Details: residual activity after 30° C. for 16 hr at each pH (FIG. 6)
Procedure: as §1
The temperature stability of the enzyme was measured based on the residual activity after a treatment at each temperature for 10 min.
The pH stability was examined. […]

For B1, the “pH stability (comparatively stable at)” value was 7.8-8.7 pH.

Same assay, conditions: residual activity after treatment at each temperature for 10 min (FIG. 5)

For B1, the “temperature stability (stable at)” value was at most 40 °C.

Biological target: T1, D-amino acid oxidase
Test: Range of reaction temperature and pH, optimal temperature and pH
Type: biochemical, Candida intermedia NBRC0761
Details: FIG. 4
Procedure: as §1
The range of reaction temperature and the optimal temperature were examined.
The range of reaction pH and the optimal pH were examined. […] The enzyme was active at least within the examined range of pH 6-10.5, and the optimal pH was 8.5-9.5.

B1 was tested, and the “optimal pH” value was 8.5-9.5 pH.

Same assay, conditions: examined range; activity at 30° C. as 100% (FIG. 3)

With B1 the “range of reaction temperature (highly active)” value was 20-60 °C.

Same assay, conditions: examined range; activity at pH 8.0 as 100% (FIG. 4)

With B1 the “range of reaction pH (active)” value was 6-10.5 pH.

Biological target: T1, D-amino acid oxidase
Test: Substrate specificity of purified D-amino acid oxidase
Type: biochemical, Candida intermedia NBRC0761
Details: purified enzyme; activity to D-Phe as 100%; each substrate in place of DL-phenylalanine
Procedure: The activity of the D-amino acid oxidase was measured by quantifying hydrogen peroxide produced in the reaction by an enzyme method using peroxidase. Hydrogen peroxide was quantified by an enzyme method as follows. 250 μl of a chromogenic solution containing 50 mM DL-phenylalanine, 0.80 mM 4-aminoantipyrine, 1.31 mM N-ethyl-N-(2-hydroxy-3-sulfopropyl)-m-toluidine, 6 u/ml peroxidase (manufactured by TOYOBO Inc.) and 50 mM Tris-hydrochloric acid buffer (pH 8.0) was mixed with 50 μl of an appropriately diluted enzyme solution, and the mixture was reacted at 30° C. for 30 min. Absorption at 555 nm was measured, and the amount of hydrogen peroxide produced in the reaction mixture was quantified based on the analytical curve prepared in advance. The amount of the enzyme that produced 1 μmol of hydrogen peroxide in 1 minute was defined as 1 unit. In addition, protein was quantified according to a Bradford method using BSA as a standard protein. The specific activity of the purified D-amino acid oxidase was 44.8 units/mg protein (30° C.).
as §1
The substrate specificity of the purified D-amino acid oxidase was examined. The substrate DL-phenylalanine used in the aforementioned enzyme activity assay was changed to each substrate, and the enzyme activity was measured.

In order of rising “relative activity (%)” value:
1. N[C@H](CC(=O)O)C(=O)O [D-Asp]  0.0%
2. N[C@H](CCC(=O)O)C(=O)O [D-Glu]  0.0%
3. NCCCC[C@@H](N)C(=O)O [D-Lys]  0.0%
4. NCC(=O)O [Gly]  0.0%
5. C[C@H](N)C(=O)O [L-Ala]  0.0%
6. CSCC[C@H](N)C(=O)O [L-Met]  0.0%
7. CCC[C@H](N)C(=O)O [L-Norvaline]  0.0%
8. O=C(O)[C@@H]1CCCN1 [L-Pro]  0.0%
9. NC(N)=NCCCC(N)C(=O)O [D-Arg]  0.05%
10. N[C@H](Cc1c[nH]cn1)C(=O)O [D-His]  4.2%
11. C[C@H](O)[C@@H](N)C(=O)O [D-Thr]  4.7%
12. N[C@@H](C(=O)O)c1ccc(O)c(O)c1 [D-3,4-dihydroxy-phenylglycine]  5.7%
13. NC(=O)C[C@@H](N)C(=O)O [D-Asn]  5.8%
14. NC(=O)CC[C@@H](N)C(=O)O [D-Gln]  5.8%
15. N[C@H](CO)C(=O)O [D-Ser]  11.3%
16. CC[C@@H](C)[C@@H](N)C(=O)O [D-Ile]  16.6%
17. NC(CCBr)C(=O)O (racemic) [DL-2-amino-4-Br-butyric acid]  17.2%
18. CC(C)[C@@H](N)C(=O)O [D-Val]  27.3%
19. O=C(O)[C@H]1CCCN1 [D-Pro]  44.3%
20. CCCC(N)C(=O)O (racemic) [DL-Norvaline]  93.8%
21. CC(C)C[C@@H](N)C(=O)O [D-Leu]  96.7%
22. CSCC[C@@H](N)C(=O)O [D-Met]  100.5%
23. C[C@@H](N)C(=O)O [D-Ala]  129.1%
24. N[C@H](Cc1ccc(F)cc1)C(=O)O [D-p-F-Phe]  167.2%
25. CCC(C(=O)O)c1ccccc1 (racemic) [DL-α-phenylbutyric acid]  194.7%

Biological target: T1, D-amino acid oxidase
Test: Specific activity of purified D-amino acid oxidase (hydrogen peroxide quantified with peroxidase)
Type: biochemical, Candida intermedia NBRC0761
Details: 30° C.; 1 unit = 1 μmol hydrogen peroxide in 1 minute; DL-phenylalanine, pH 8.0
Procedure: An enzyme solution is appropriately diluted, mixed with a chromogenic solution containing 50 mM DL-phenylalanine, 0.80 mM 4-aminoantipyrine, 1.31 mM N-ethyl-N-(2-hydroxy-3-sulfopropyl)-m-toluidine, 6 u/ml peroxidase (manufactured by TOYOBO Inc.), and 50 mM Tris-hydrochloric acid buffer (pH 8.0) at 1:5, and reacted at 30° C. for 30 min. The absorbance at 555 nm is measured, and the amount of hydrogen peroxide produced in the reaction mixture is quantified based on the analytical curve prepared in advance. In the embodiment, unless otherwise specified, this method was used to assay the D-amino acid oxidase activity.
The activity of the D-amino acid oxidase was measured by quantifying hydrogen peroxide produced in the reaction by an enzyme method using peroxidase. Hydrogen peroxide was quantified by an enzyme method as follows. […] Absorption at 555 nm was measured, and the amount of hydrogen peroxide produced in the reaction mixture was quantified based on the analytical curve prepared in advance. […] In addition, protein was quantified according to a Bradford method using BSA as a standard protein. […]

B1 showed a specific activity of 44.8 units/mg protein.
